Like-named read-outs stand apart in the source and are kept apart here.
Molecular target: T1, VAV1 (Homo sapiens, UniProt P15498+Q96SW2)
T1 construct: A heterozygous VAV1 C-terminal HiBiT knock-in pool was generated at Monte Rosa Therapeutics from a clonal Jurkat cell; endogenous in cells; host or cells: Jurkat clone stably expressing LgBiT, homozygous GSPT1-G575N; heterozygous VAV1-HiBiT knock-in pool
Assay: VAV1 degradation activity, VAV1-HiBiT knock-in Jurkat luminescence assay (Example A, Table 1)
Assay type: cell-based
Conditions: VAV1-HiBiT knock-in Jurkat cells, luminescence read at 6 and 24 hours; for Dmax: Jurkat
Experimental: Cells were plated at 10,000 cells per well using Multiflo (BioTek) or Multi Drop Combi (Thermo Fisher) in 384-well white solid bottom plates (Corning, 3570BC) in 25 ul volume in RPMI 1640 media (Thermo Fischer, 22400105) containing 10% FBS (Corning, 35-075-CV), 1% Penicillin/Streptomycin (ThermoFisher Scientific, 15140-122), and 1% Endurazine (Nano-Glo Endurazine Live Cell Substrate (Promega, N2571)). Cells were incubated for ˜16 hours at 37° C., 5% CO2. 25 nL of a compound at 10 μM were dosed into the plate using an Echo® 650 liquid handler (Labcyte). Cells were incubated at 37° C., 5% CO2 and signal was read at 6 and 24 hours after compound addition on a Pherastar FSX using “LUM plus” optic module.
Analysis was performed in Scinamic (Scinamic, Cambridge, MA). Luminescence response (R) was calculated by the formula: response=100*(S−N)/(P−N) where S is the signal of the well, N and P the mean negative and positive control values respectively of the same plate. The luminescence response was then fitted in Scinamic using a 3-parameter agonist logistic fit (hillslope=1, EC50>0, top/bottom unconstrained).

[1] = read-out: VAV1 DC50 (nM), class

| SMILES | Dmax (read-out: VAV1 Dmax %) [%] | Dmax (read-out: VAV1 Dmax %, class) [%] | DC50 (read-out: VAV1 DC50) [nM] | DC50 [1] [nM] |
| --- | --- | --- | --- | --- |
| O=C1CCC(c2cccc(-c3ccc(Cn4ccccc4=O)cc3)c2Cl)C(=O)N1 (stereo not shown) [Compound 156, 3-(2-chloro-4′-((2-oxopyridin-1(2H)-yl)methyl)-[1,1′-biphenyl]-3-yl)piperidine-2,6-dione] | 92 | > 90 | 26 | ≤ 100 |
| Cn1ccc(COc2ccc(-c3cc(C#N)cc(C4CCC(=O)NC4=O)c3Cl)cc2)n1 (stereo not shown) [Compound 157] | 20 | < 60 | ≥ 10000 | > 1000 |
| Cn1ccc(=O)n1Cc1ccc(-c2cccc(C3CCC(=O)NC3=O)c2Cl)cc1 (stereo not shown) [Compound 158, 3-(2-chloro-4′-((2-methyl-5-oxo-2,5-dihydro-1H-pyrazol-1-yl)methyl)-[1,1′-biphenyl]-3-yl)piperidine-2,6-dione] | 81.7 | 60 to 90 | 74.3 | ≤ 100 |
| O=C1CCC(c2cccc(-c3ccc(Cc4cnccn4)cc3)c2Cl)C(=O)N1 (stereo not shown) [Compound 159, 3-(2-chloro-4′-(pyrazin-2-ylmethyl)-[1,1′-biphenyl]-3-yl)piperidine-2,6-dione] | 96 | > 90 | 14.8 | ≤ 100 |
| Cn1ccc(OCc2ccc(-c3cccc(C4CCC(=O)NC4=O)c3Cl)cc2)n1 (stereo not shown) [Compound 160, 3-(2-chloro-4′-(((1-methyl-1H-pyrazol-3-yl)oxy)methyl)-[1,1′-biphenyl]-3-yl)piperidine-2,6-dione] | 94.5 | > 90 | 18.5 | ≤ 100 |
| O=C1CCC(c2cccc(-c3ccc(N4CCCCC4=O)cc3)c2Cl)C(=O)N1 (stereo not shown) [Compound 161, 3-(2-chloro-4′-(2-oxopiperidin-1-yl)-[1,1′-biphenyl]-3-yl)piperidine-2,6-dione] | 95.4 | > 90 | 10.1 | ≤ 100 |
| O=C1CCC(c2cccc(-c3ccc(N4CCCC4=O)cc3)c2Cl)C(=O)N1 (stereo not shown) [Compound 162, 3-(2-chloro-4′-(2-oxopyrrolidin-1-yl)-[1,1′-biphenyl]-3-yl)piperidine-2,6-dione] | 73.1 | 60 to 90 | 283 | 100 to 1000 |
| O=C1CCC(c2cccc(-c3ccc(N4CCC4=O)cc3)c2Cl)C(=O)N1 (stereo not shown) [Compound 163, 3-(2-chloro-4′-(2-oxoazetidin-1-yl)-[1,1′-biphenyl]-3-yl)piperidine-2,6-dione] | 44.7 | < 60 | ≥ 10000 | > 1000 |
| Cn1ccc(-c2ccc(-c3cccc(C4CCC(=O)NC4=O)c3Cl)cc2)n1 (stereo not shown) [Compound 164, 3-(2-chloro-4′-(1-methyl-1H-pyrazol-3-yl)-[1,1′-biphenyl]-3-yl)piperidine-2,6-dione] | 71.9 | 60 to 90 | 542 | 100 to 1000 |
| CC(Oc1ccccn1)c1ccc(-c2cccc(C3CCC(=O)NC3=O)c2Cl)cc1 (stereo not shown) [Compound 165, 3-(2-chloro-4′-(1-(pyridin-2-yloxy)ethyl)-[1,1′-biphenyl]-3-yl)piperidine-2,6-dione] | 90.2 | > 90 | 47.7 | ≤ 100 |
| O=C1CCC(c2cccc(-c3ccc(N4CCC(Cn5ccccc5=O)CC4)cc3)c2Cl)C(=O)N1 (stereo not shown) [Compound 166, 3-(2-chloro-4′-(4-((2-oxopyridin-1(2H)-yl)methyl)piperidin-1-yl)-[1,1′-biphenyl]-3-yl)piperidine-2,6-dione] | 61.5 | 60 to 90 | 517 | 100 to 1000 |
| O=C1CCC(c2cccc(-c3ccc(OCc4c[nH]cn4)cc3)c2Cl)C(=O)N1 (stereo not shown) [Compound 167, 3-(4′-((1H-imidazol-4-yl)methoxy)-2-chloro-[1,1′-biphenyl]-3-yl)piperidine-2,6-dione] | 87.3 | 60 to 90 | 38.5 | ≤ 100 |
| O=C1CCC(c2cccc(-c3ccc(CN4CCCCC4=O)cc3)c2Cl)C(=O)N1 (stereo not shown) [Compound 168, 3-(2-chloro-4′-((2-oxopiperidin-1-yl)methyl)-[1,1′-biphenyl]-3-yl)piperidine-2,6-dione] | 91.5 | > 90 | 18.8 | ≤ 100 |
| O=C1CCC(c2cccc(-c3ccc(Cc4ccccn4)cc3)c2Cl)C(=O)N1 (stereo not shown) [Compound 169, 3-(2-chloro-4′-(pyridin-2-ylmethyl)-[1,1′-biphenyl]-3-yl)piperidine-2,6-dione] | 98 | > 90 | 5.59 | ≤ 100 |
| O=C1CCC(c2cccc(-c3ccc(Cn4ccc(F)cc4=O)cc3)c2Cl)C(=O)N1 (stereo not shown) [Compound 170, 3-(2-chloro-4′-((4-fluoro-2-oxopyridin-1(2H)-yl)methyl)-[1,1′-biphenyl]-3-yl)piperidine-2,6-dione] | 94.2 | > 90 | 69.7 | ≤ 100 |
| O=C1CCC(c2cccc(-c3ccc(Cn4ccc(C(F)(F)F)cc4=O)cc3)c2Cl)C(=O)N1 (stereo not shown) [Compound 171, 3-(2-chloro-4′-((2-oxo-4-(trifluoromethyl)pyridin-1(2H)-yl)methyl)-[1,1′-biphenyl]-3-yl)piperidine-2,6-dione] | 94.9 | > 90 | 93.8 | ≤ 100 |
| C#Cc1ccc(C2CCC(=O)NC2=O)c(Cl)c1-c1ccc(OCc2ccn(C)n2)cc1 (stereo not shown) [Compound 172, 3-(2-chloro-6-ethynyl-4′-((1-methyl-1H-pyrazol-3-yl)methoxy)-[1,1′-biphenyl]-3-yl)piperidine-2,6-dione] | 24.7 | < 60 | ≥ 10000 | > 1000 |
| CC(Oc1ccc(-c2cccc(C3CCC(=O)NC3=O)c2Cl)cc1)c1ccn(C)n1 (stereo not shown) [Compound 173, 3-(2-chloro-4′-(1-(1-methyl-1H-pyrazol-3-yl)ethoxy)-[1,1′-biphenyl]-3-yl)piperidine-2,6-dione] | 88.1 | 60 to 90 | 40.2 | ≤ 100 |
| CC(c1ccc(-c2cccc(C3CCC(=O)NC3=O)c2Cl)cc1)n1ccccc1=O (stereo not shown) [Compound 174, 3-(2-chloro-4′-(1-(2-oxopyridin-1(2H)-yl)ethyl)-[1,1′-biphenyl]-3-yl)piperidine-2,6-dione] | 92.2 | > 90 | 27.4 | ≤ 100 |
| COc1ccn(Cc2ccc(-c3cccc(C4CCC(=O)NC4=O)c3Cl)cc2)c(=O)c1 (stereo not shown) [Compound 175, 3-[2-chloro-3-[4-[(4-methoxy-2-oxo-1-pyridyl)methyl]phenyl]phenyl]piperidine-2,6-dione] | 87.1 | 60 to 90 | 31.6 | ≤ 100 |
| Cn1ccc(Cc2ccc(-c3cccc(C4CCC(=O)NC4=O)c3Cl)cc2)n1 (stereo not shown) [Compound 176, 3-(2-chloro-4′-((1-methyl-1H-pyrazol-3-yl)methyl)-[1,1′-biphenyl]-3-yl)piperidine-2,6-dione] | 98 | > 90 | 4.41 | ≤ 100 |
| Cn1ccc(COc2ccc(-c3cccc(C4CCC(=O)NC4=O)c3Cl)c(Cl)c2)n1 (stereo not shown) [Compound 177, 3-(2,2′-dichloro-4′-((1-methyl-1H-pyrazol-3-yl)methoxy)-[1,1′-biphenyl]-3-yl)piperidine-2,6-dione] | 29.2 | < 60 | ≥ 10000 | > 1000 |

Reference: patent US12257247B2 (Monte Rosa Therapeutics AG, priority 2023, dated 2025)
